Tests used:
[1] = test system: pMEK; assay: pMEK AlphaLISA (MEK1 pS218/222), HCT116 cells, EGF stimulated; assay type: cell-based; settings: Homo sapiens, HCT-116, 2 h compound, EGF 30 ng/ml 15 min
Procedure: (§1) Determination of pMEK IC50s
(§2) A549 cells were cultured in F12K/10% FBS media (ATCC CAT #21127022) and were seeded at 10000 cells/well and HCT116 cells were cultured in McCoy's 5A/10% FBS media (Gibco Cat #30-2007) were seeded at 15000 cells/well in 384 microplates (Corning CAT #3765). Cells were incubated overnight in a TC incubator. Compounds were serially diluted and added to cells for 2 h in a TC incubator. At the end of the 2 h EGF (R&D Systems 236-EG-200) was added at a final EGF concentration of 30 ng/ml and incubated for 15 minutes at 37° C. in a TC incubator. AlphaLisa (Perkin Elmer) was performed according to manufacturer's instructions (Perkin Elmer CAT #ALPHA.SF ULTRA MEK1 PS218/222). The percent (%) inhibition at each concentration of compound is calculated based on and relative to the AlphaLISA signal in the HPE and ZPE control wells contained within each assay plate. The ZPE control wells contain cells and DMSO as 0% inhibition, and the HPE control wells only contain cells and control compound (Sellekchem Staurosporin CAT #S1421) as 100% inhibition.

[2] = test system: IPC298 cells; assay: IPC298 Cell Titer Glow assay (CTG); settings: Homo sapiens, IPC-298, 72 h; for IC50: read-out: CTG IC50 (nM) Cell Line: IPC298.2
[3] = test system: pERK Thr202/Tyr204; assay: pERK HTRF detection of pERK Thr202/Tyr204, HCT116 cells; assay type: cell-based; settings: Homo sapiens, HCT-116, 2 h compound
Procedure: (§3) pERK: Detection of pERK Thr202/Tyr204
(§4) A549 cultured in F-12K/10% FBS were seeded at 10000 cells/well, and HCT116 cultured in McCoy's 5A/10% FBS were seeded at 15000 cells/well cells into Corning 384-well plates, respectively. Cells were incubated overnight in a TC incubator. Compounds were serially diluted and added to cells for 2 h in a TC incubator. Cells were then lysed according to manufacture protocol (Cisbio CAT #: 64AERPEG). Cell lysate was mixed with phospho-ERK (Thr202/Tyr204) antibody solution at 5:1 (v:v). Lysate and antibody mixture were incubated overnight at room temperature. HTRF signal was read at two different wavelengths (665 nm and 620 nm) on a compatible HTRF reader.

[4] = test system: HCT116 cells; assay: HCT116 Cell Titer Glow assay (CTG); settings: Homo sapiens, HCT-116, 72 h; for IC50: read-out: CTG IC50 (nM) Cell Line: HCT116.20; for viability at 1000 µM: read-out: CTG % cell viability 1000 uM HCT116.20, HCT116 cells, 72 hours, 1000 uM, percent cells remaining after treatment
[5] = test system: pERK Thr202/Tyr204; assay: pERK HTRF detection of pERK Thr202/Tyr204, A549 cells; assay type: cell-based; settings: Homo sapiens, 2 h compound
Procedure: as §3, §4

[6] = test system: pMEK; assay: pMEK AlphaLISA (MEK1 pS218/222), A549 cells, EGF stimulated; assay type: cell-based; settings: Homo sapiens, 2 h compound, EGF 30 ng/ml 15 min
Procedure: as §1, §2

Compound	IC50 [1] [nM]	IC50 [3] [nM]	IC50 [4] [nM]	IC50 [5] [nM]	IC50 [6] [nM]	IC50 ([3]; numeric value) [nM]	IC50 [2] [nM]	viability at 1000 µM [4] [%]	viability at 100 µM ([2]; read-out: CTG % cell viability 100 uM IPC298.2, IPC298 cells, 72 hours, 100 uM, percent cells remaining after treatment) [%]
CC(=O)Nc1nccc(Cc2cncc(Nc3ccc(Br)cc3F)c2C)c1F [Example 3, N-[4-({5-[(4-bromo-2-fluorophenyl)amino]-4-methylpyridin-3-yl}methyl)-3-fluoropyridin-2-yl]acetamide]	10 to 100	< 10	–	< 10	10 to 100	–	–	–	–
COC(=O)Nc1nccc(Cc2cncc(Nc3ccc(Br)cc3F)c2C)c1F [Example 4, methyl N-[4-({5-[(4-bromo-2-fluorophenyl)amino]-4-methylpyridin-3-yl}methyl)-3-fluoropyridin-2-yl]carbamate]	10 to 100	10 to 100	–	10 to 100	10 to 100	–	–	–	–
CNS(=O)(=O)Nc1ccc(Cc2cncc(Nc3ccc(Br)cc3F)c2C)cc1 [Example 5, N-(4-bromo-2-fluorophenyl)-4-methyl-5-({4-[(methylsulfamoyl)amino]phenyl}methyl)pyridin-3-amine]	< 10	< 10	10 to 100	< 10	< 10	–	< 10	–	–
Cc1c(Cc2ccnc(S(C)(=O)=O)c2F)cncc1Nc1ccc(Br)cc1F [Example 9, N-(4-bromo-2-fluorophenyl)-5-[(3-fluoro-2-methanesulfonylpyridin-4-yl)methyl]-4-methylpyridin-3-amine]	10 to 100	< 10	–	< 10	< 10	–	–	–	–
CNS(=O)(=O)Nc1nccc(Cc2cncc(Oc3ccc(Cl)cn3)c2C)c1F [Example 27, {[4-({5-[(5-chloropyridin-2-yl)oxy]-4-methylpyridin-3-yl}methyl)-3-fluoropyridin-2-yl]sulfamoyl}(methyl)amine]	< 10	–	500 to 1000	–	< 10	–	10 to 100	–	–
Cc1c(Cc2ccnc(S(C)(=O)=O)c2F)cncc1Nc1ccc(Cl)cc1F [Example 28, N-(4-chloro-2-fluorophenyl)-5-[(3-fluoro-2-methanesulfonylpyridin-4-yl)methyl]-4-methylpyridin-3-amine]	10 to 100	–	> 1000	–	10 to 100	–	10 to 100	–	–
CNS(=O)(=O)Nc1nccc(Cc2cncc(Oc3ccc(Cl)cc3F)n2)c1F [Example 40, 4-[[6-(4-chloro-2-fluoro-phenoxy)pyrazin-2-yl]methyl]-3-fluoro-N-(methylsulfamoyl)pyridin-2-amine]	> 1000	–	> 1000	–	> 1000	> 1000	> 1000	101	95.2

The next lines start with results.

IC50 [1] [nM]	IC50 [3] [nM]	IC50 [4] [nM]	IC50 [5] [nM]	IC50 [6] [nM]	IC50 ([3]; numeric value) [nM]	Compound	IC50 [2] [nM]	viability at 1000 µM [4] [%]	viability at 100 µM ([2]; read-out: CTG % cell viability 100 uM IPC298.2, IPC298 cells, 72 hours, 100 uM, percent cells remaining after treatment) [%]
< 10	< 10	< 10	< 10	< 10	–	CNS(=O)(=O)Nc1nccc(Cc2cncc(Nc3ccc(Br)cc3F)c2C)c1F [Example 1, N-(4-bromo-2-fluorophenyl)-5-({3-fluoro-2-[(methylsulfamoyl)amino]pyridin-4-yl}methyl)-4-methylpyridin-3-amine]	< 10	–	–
< 10	< 10	10 to 100	< 10	< 10	–	CNS(=O)(=O)Nc1nccc(Cc2cncc(Nc3ccc(Cl)cc3F)c2C)c1F [Example 6, N-(4-chloro-2-fluorophenyl)-5-({3-fluoro-2-[(methylsulfamoyl)amino]pyridin-4-yl}methyl)-4-methylpyridin-3-amine]	–	–	–
< 10	< 10	< 10	< 10	< 10	–	CCc1ccc(Nc2cncc(Cc3ccnc(NS(=O)(=O)NC)c3F)c2C)c(F)c1 [Example 10, N-(4-ethyl-2-fluorophenyl)-5-({3-fluoro-2-[(methylsulfamoyl)amino]pyridin-4-yl}methyl)-4-methylpyridin-3-amine]	< 10	–	–
< 10	< 10	–	< 10	10 to 100	–	CNS(=O)(=O)Nc1nccc(Cc2cncc(Nc3ccc(C#N)cc3F)c2C)c1F [Example 11, 3-fluoro-4-{[5-({3-fluoro-2-[(methylsulfamoyl)amino]pyridin-4-yl}methyl)-4-methylpyridin-3-yl]amino}benzonitrile]	10 to 100	31.8	–
< 10	< 10	–	< 10	< 10	–	CNC(=O)Nc1nccc(Cc2cncc(Nc3ccc(Br)cc3F)c2C)c1F [Example 12, 1-[4-({5-[(4-bromo-2-fluorophenyl)amino]-4-methylpyridin-3-yl}methyl)-3-fluoropyridin-2-yl]-3-methylurea]	–	–	–
< 10	–	< 10	–	< 10	–	CNS(=O)(=O)Nc1nccc(Cc2cncc(Nc3ccc(Cl)cc3OC)c2C)c1F [Example 35, 4-[[5-(4-chloro-2-methoxy-anilino)-4-methyl-3-pyridyl]methyl]-3-fluoro-N-(methylsulfamoyl)pyridin-2-amine]	< 10	–	–
< 10	–	10 to 100	–	< 10	0.362	CNS(=O)(=O)Nc1nccc(Cc2cncc(Nc3ccc(Cl)cc3F)c2OC)c1F [Example 37, N-(4-chloro-2-fluorophenyl)-5-({3-fluoro-2-[(methylsulfamoyl)amino]pyridin-4-yl}methyl)-4-methoxypyridin-3-amine]	< 10	–	–
< 10	–	< 10	–	< 10	0.241	CNS(=O)(=O)Nc1nccc(Cc2cncc(Nc3ccc(Cl)cc3F)c2C(F)(F)F)c1F [Example 38, N-(4-chloro-2-fluorophenyl)-5-({3-fluoro-2-[(methylsulfamoyl)amino]pyridin-4-yl}methyl)-4-(trifluoromethyl)pyridin-3-amine]	< 10	–	–
< 10	–	10 to 100	–	< 10	0.354	CNS(=O)(=O)Nc1nccc(Cc2cncc(Nc3ccc(OC(F)(F)F)cc3F)c2C)c1F [Example 39]	< 10	–	–
< 10	–	100 to 500	–	< 10	2.32	CNS(=O)(=O)Nc1nccc(Cc2cncc(Nc3nc4c(cc3F)OCCO4)c2C)c1F [Example 41, 7-fluoro-N-[5-[[3-fluoro-2-(methylsulfamoylamino)-4-pyridyl]methyl]-4-methyl-3-pyridyl]-2,3-dihydro-[1,4]dioxino[2,3-b]pyridin-6-amine]	10 to 100	–	–
< 10	–	100 to 500	–	< 10	0.791	CNS(=O)(=O)Nc1nccc(Cc2cncc(Nc3cc4c(cc3F)OCCO4)c2C)c1F [Example 42, 3-fluoro-4-[[5-[(6-fluoro-2,3-dihydro-1,4-benzodioxin-7-yl)amino]-4-methyl-3-pyridyl]methyl]-N-(methylsulfamoyl)pyridin-2-amine]	10 to 100	–	–

— patent US20250288571A1 (Nested Therapeutics, Inc., priority 2024, published 2025)
